“Also recorded” adds a separate entry of the source. Values belong to the molecule of their own block, whether it stands above or below them. Strand notation (5' to 3'): a small letter for the sugar, then the base; units joined by * are phosphorothioate-linked, units joined directly phosphodiester-linked; [ ] holds rarer units or linkages, { } end groups; capitals alone tell only the bases. Primed or numbered codes have the meaning given here. Where no end group is shown, it is not given here. [ ]: non-standard residue; d: D form. The star is where a group is joined. 5FAM = O=C1OC2(c3ccc(O)cc3Oc3cc(O)ccc32)c2ccc(C(=O)*)cc21; PEG2′ = not defined here; d = 2'-deoxy (DNA); CPQ2 = quencher
Key:
FRET-PAP11 = test system: T1, FRET-PAP11
T1 sequence: GGGSGRSANAKGKGC

tumor tissue homogenates = test: Tissue lysate proteolytic cleavage assay of FRET-paired peptide substrates; assay type: biochemical, Balb/c mice; settings: tumor-bearing or healthy lung tissue homogenates, ex vivo
Description: FIGS. 6A-6E show experiments relating to portable monitoring invasive CRC using DNA-encoded multiplex synthetic urine biomarkers. […] Peptide cleavage kinetics were monitored and cleavage rates were plotted (n=5 mice per group; ±SEM; unpaired t-test with Welch's correction, **P<0.01, ****P<0.0001). […] All urine samples were collected at 1 h after sensor administration. Cas12a trans-cleavage assays were performed against each DNA-barcode with the fluorophore-quencher paired reporter. Initial reaction velocity (V0) of the Cas12a trans-cleavage assays were calculated and normalized to that of saline injected control animals (n=8 or 10 mice per group; ±SEM; unpaired t-test with Welch's correction, *P<0.05, **P<0.01). The initial reaction velocity (V0) refers to the slope of the curve at the beginning of a reaction. […] Band intensities were quantified using ImageJ. […] ROC analysis utilized ratio of quantified cleaved reporter band intensity over its corresponding control band intensity. Dashed line represents an AUC of 0.5, and a perfect AUC is 1.0.
Tissue samples were homogenized in PBS and centrifuged at 4° C. for 5 min at 6,000×g. Supernatant was further centrifuged at 14,000×g for 25 min at 4° C. Protein concentration was measured using ThermoFisher BCA Protein Assay Kit and prepared at 2 mg/mL prior to assay. Assays were performed in the 384-well plate in triplicate in enzyme-specific buffer with peptides (1 μM) and cell lysates (0.33 mg/mL) in 30 μL at 37° C. Fluorescence was measured at Ex/Em 485/535 nm using a Tecan Infinite 200pro microplate reader (Tecan). Signal increase at 60 min was used across conditions.

LbaCas12a [1] = test: Cas12a fluorescent cleavage assay, DNA activators in solution; assay type: biochemical, Lachnospiraceae bacterium ND2006
Description: (§1) In particular, the Cas12a from Lachnospiraceae bacterium ND2006 (LbaCas12a, UniProtKB Accession No. A0A182DWE3) assembled with guide CRISPR RNA sequences (crRNAs) recognizes 1) a T nucleotide-rich protospacer-adjacent motif (PAM) to target double-stranded DNA (dsDNA), or 2) single-stranded DNA (ssDNA) through sequence complementarity in a PAM-independent manner, and unleashes a robust, nonspecific ssDNA trans-cleavage activity that can be monitored using a fluorophore (F)-quencher (Q)-labeled reporter (FIG. 2A) (Chen et al. Science 360, 436-439 (2018)). […] In Table 6, activation of Cas12a with native and modified DNA oligos was quantified in the Cas12a fluorescent cleavage assay. […]
(§2) LbCas12a (final concentration 100 nM, New England Biolabs) was incubated with 1× NEB BUFFER™ 2.1, crRNA (250 nM, IDT) and complementary DNA activators (4 nM unless specifically described, IDT, in solution or spiked in urine) or urine samples collected from experimental animals at 37° C. for 30 min. […] LbCas12a activation was detected at 37° C. every 2 min for 3 hours by measuring fluorescence with plate reader Tecan Infinite Pro M200 (λex: 485 nm and λem: 535 nm). Fluorescence for background conditions (either no DNA activator input or no crRNA conditions) were run with each assay to generate background fluorescence as negative controls. […]

LbaCas12a [2] = test: Cas12a fluorescent cleavage assay with urine of mice injected with DNA activators; assay type: in vivo, Lachnospiraceae bacterium ND2006; settings: urine collected after 1 h added to reaction
Description: as §1, §2

[3] = test system: serine and metalloproteases; test: Recombinant protease substrate cleavage assay; assay type: biochemical
Description: Fluorogenic protease substrates with fluorophore (FAM) and quencher (CPQ2) were synthesized by CPC Scientific Inc. Recombinant proteases were purchased from Enzo Life Sciences and R&D Systems. Assays were performed in the 384-well plate in triplicate in enzyme-specific buffer with peptides (1 μM) and proteases (40 nM) in 30 μL at 37° C. Fluorescence was measured at Ex/Em 485/535 nm using a Tecan Infinite 200pro microplate reader (Tecan). Signal increase at 60 min was used across conditions.

subcutaneous PC-3 tumors = test system: subcutaneous PC-3 tumors; design: species or system nude mice; settings: mouse, in vivo
Description: Studies were performed in experimental animals with near-infrared dye labeled agents to minimize interference from autofluorescent background. Balb/c mice were intravenously injected with Cy5-labeled modified or native DNA molecules at 1 nmol per mouse, n=3 per condition. Urine samples from each mouse was collected at 30 min, 1, 2, 3, 4 hours after injection. C-met nanobodies were coupled with Sulfo-Cyanine7 NHS ester (Lumiprobe), reacted overnight, purified by spin filtration and injected into PC-3 tumor-bearing nude mice (1.5 nmol dye eq. of protein) via i.v. injection. After 24 hours, mice were euthanized and necropsy was performed to remove the tumors, lungs, heart, kidneys, liver, and spleen. Urine, blood and organs were scanned using IVIS Imaging Systems and ODYSSEY® CLx (LI-COR). Organ fluorescence was quantified in ImageStudio of ODYSSEY® CLx. Blood circulatory kinetics were monitored in Balb/c mice by serial blood draws at 10 min, 30 min, 120 min and 180 min after i.v. injection of Cy5-labeled DNA or PEG at 1 nmol dye per mouse. Blood for pharmacokinetics measurements was collected using tail vain bleeds. Blood was diluted in PBS with 5 mM EDTA to prevent clotting, centrifuged for 5 min at 5,000×g, and fluorescent reporter concentration was quantified in 384-well plates relative to standards (LI-COR ODYSSEY® CLx).

[4] = Solubility of purified recombinant nanobody; assay type: physicochemical; settings: after affinity and size-exclusion chromatography
Description: One major challenge for diagnosis and therapy of cancer is tailoring multiple disease signatures, which are defined by biological differences spanning genetic, transcriptomic, and proteomic differences between tumor and healthy tissue, while minimizing off-target effects (Hunter, K. Nature reviews. Cancer 2006, 6, 141). To this end, a tumor-targeting nanobody was re-engineered to construct protease-activatable nanobodies through programmable genetic encoding (FIGS. 5A-5B). Protease-activatable nanobodies were constructed by inserting a well characterized PLAU substrate (PQ2: GGSGRSANAK (SEQ ID NO: 3)) with an unpaired cysteine for one-step site-specific labeling of cargos via a thio-ether bond (see, e.g., Masa et al., Bioconjugate chemistry 2014, 25, 979). The cysteine was introduced at the carboxyl terminus, positioning the conjugation-site on the opposite side of the antigen-binding region to avoid antigen binding interference. To prevent possible misfolding caused by the internal disulfide bond present in the Nb, the peptide substrate with cysteine is spaced by a rigid linker (SPSTPPTPSPSTPP (SEQ ID NO: 6)) from the Nb sequence.

cMET = molecular target: T2, cMET (human, UniProt P08581 25-1390); test: in vivo biodistribution (IVIS imaging) of Cy7-labelled nanobody after i.v. injection into nude mice bearing cMET-expressing PC-3 xenografts
T2 construct: whole, on cells; The target is presented on cMET- and PLAU-expressing tumors derived from PC-3 cells in nude mice; It is not a purified protein
T2 sequence (P08581 25-1390): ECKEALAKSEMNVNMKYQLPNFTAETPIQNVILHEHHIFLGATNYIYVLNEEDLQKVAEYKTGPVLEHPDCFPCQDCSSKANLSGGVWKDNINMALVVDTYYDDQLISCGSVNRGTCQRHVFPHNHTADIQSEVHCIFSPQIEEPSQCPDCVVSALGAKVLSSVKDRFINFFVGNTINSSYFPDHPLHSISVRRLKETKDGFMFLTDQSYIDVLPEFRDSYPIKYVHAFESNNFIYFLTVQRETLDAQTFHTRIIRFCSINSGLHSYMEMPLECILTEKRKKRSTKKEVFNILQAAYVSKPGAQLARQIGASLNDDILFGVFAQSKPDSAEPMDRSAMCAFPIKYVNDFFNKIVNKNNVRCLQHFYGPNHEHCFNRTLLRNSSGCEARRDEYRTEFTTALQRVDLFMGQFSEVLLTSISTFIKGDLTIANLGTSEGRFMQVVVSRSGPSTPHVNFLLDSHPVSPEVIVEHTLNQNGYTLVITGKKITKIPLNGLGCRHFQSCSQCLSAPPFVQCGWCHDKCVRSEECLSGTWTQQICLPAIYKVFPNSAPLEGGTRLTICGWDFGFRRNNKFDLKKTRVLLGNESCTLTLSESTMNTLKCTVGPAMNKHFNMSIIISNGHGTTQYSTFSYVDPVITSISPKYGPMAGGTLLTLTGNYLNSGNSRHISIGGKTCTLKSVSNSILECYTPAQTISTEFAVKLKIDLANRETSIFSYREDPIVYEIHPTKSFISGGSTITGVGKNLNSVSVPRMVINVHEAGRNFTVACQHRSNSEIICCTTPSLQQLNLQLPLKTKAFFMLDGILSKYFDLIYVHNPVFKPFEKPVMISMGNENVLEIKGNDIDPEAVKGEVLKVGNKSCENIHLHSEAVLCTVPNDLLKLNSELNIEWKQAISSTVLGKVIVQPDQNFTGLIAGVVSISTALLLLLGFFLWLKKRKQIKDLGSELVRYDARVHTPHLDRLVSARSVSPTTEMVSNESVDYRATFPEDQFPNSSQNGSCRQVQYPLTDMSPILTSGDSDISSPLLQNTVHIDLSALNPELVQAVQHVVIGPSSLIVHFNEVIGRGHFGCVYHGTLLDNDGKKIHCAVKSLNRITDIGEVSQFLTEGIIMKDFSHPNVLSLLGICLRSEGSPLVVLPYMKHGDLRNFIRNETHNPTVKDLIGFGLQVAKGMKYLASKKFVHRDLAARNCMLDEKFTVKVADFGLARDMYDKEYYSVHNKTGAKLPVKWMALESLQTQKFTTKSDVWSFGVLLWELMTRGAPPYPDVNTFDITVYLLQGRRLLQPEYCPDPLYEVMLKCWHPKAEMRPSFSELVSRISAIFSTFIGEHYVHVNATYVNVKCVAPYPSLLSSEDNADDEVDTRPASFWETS

Molecule: PLAU (urokinase-type plasminogen activator), recombinant
- cleavage of FRET-paired peptide substrate by recombinant protease (fluorogenic activity assay, FIG. 13D) (FRET-PAP11): The peptide substrate specifically responded to the PCa-associated protease PLAU

Molecule: FRET-PAP13: 5FAM-GGVPRGG-K(CPQ2)-PEG2-GC (SEQ ID NO: 67) (5FAM-GGVPRGGK(CPQ2)[PEG2′]GC)
- cleavage by tissue homogenates (tumor tissue homogenates): specifically cleaved

Molecule: FRET-PAP7: 5FAM-GGPLGVRGKK(CPQ2)-PEG2-GC (SEQ ID NO: 61) (5FAM-GGPLGVRGKK(CPQ2)[PEG2′]GC)
- cleavage by tissue homogenates (tumor tissue homogenates): specifically cleaved

Molecule: FRET-PAP11: 5FAM-GGGSGRSANAKG-K(CPQ2)-PEG2-GC (SEQ ID NO: 65) (5FAM-GGGSGRSANAKGK(CPQ2)[PEG2′]GC)
- cleavage by tissue homogenates (tumor tissue homogenates): specifically cleaved

Molecule: 10 mer: native ssDNA activator CGTAACGATC (SEQ ID NO: 28) (unmodified DNA)
- Native DNA in vitro (V0) (LbaCas12a [1]; initial reaction velocity, 4 nM of native DNA activator per reaction): 0.00
- Native DNA in vivo (V0) (LbaCas12a [2]; 1 nmol native DNA activator injected into healthy Balb/c mice): 0.00

Molecule: FRET-PAP9: 5FAM-GGfPRSGGGK(CPQ2)-PEG2-GC (SEQ ID NO: 63)
- cleavage by tissue homogenates (tumor tissue homogenates): specifically cleaved; also recorded: distinct cleavage patterns
- cleavage by recombinant proteases in vitro [3]: cleaved by serine and metalloproteases in vitro

Molecule: Mod 10 mer: fully phosphorothioate-modified ssDNA activator, SEQ ID NO: 35 (DNA dC*dG*dT*dA*dA*dC*dG*dA*dT*dC)
- Modified DNA in vitro (V0) (LbaCas12a [1]; initial reaction velocity (slope at beginning of reaction), 4 nM of phosphorothioate-modified DNA activator per reaction): 0.01
- Modified DNA in vivo (V0) (LbaCas12a [2]; 1 nmol modified DNA activator injected into healthy Balb/c mice): 0.01

B1: GFP nanobody: non-targeting nanobody against GFP (Clone LaG-16) with rigid linker, PLAU substrate and cysteine, SEQ ID NO: 72 (protein)
VHH: MAQVQLVESGGRLVQAGDSLRLSCAASGRTFSTSAMAWFRQAPGREREFVAAITWTVGNTILGDSVKGRFTISRDRAKNTVDLQMDNLEPEDTAVYYCSARSRGYVLSVLRSVDSYDYWGQGTQVTVSGSHHHHHHSPSTPPTPSPSTPPGSGRSANAKGGGSC
- tumor trafficking upon systemic administration (subcutaneous PC-3 tumors): did not

B2: cMET nanobody: PLAU-activated, cMET-targeting nanobody with rigid linker, PLAU substrate and unpaired cysteine, SEQ ID NO: 71 (protein)
VHH: MEVQLVESGGGLVQPGGSLRLSCAASGFILDYYAIGWFRQAPGKEREGVLCIDASDDITYYADSVKGRFTISRDNAKNTVYLQMNSLKPEDTGVYYCATPIGLSSSCLLEYDYDYWGQGTLVTVSSGSHHHHHHSPSTPPTPSPSTPPGSGRSANAKGGGSC
- tumor trafficking upon systemic administration (subcutaneous PC-3 tumors): mediated active tumor trafficking
- solubility [4]: comparable solubility with the original Nb

- binding result (cMET): binds
B3: cMET nanobody (PLAU-activated, cMET-targeting nanobody) (VHH)
VHH: EVQLVESGGGLVQPGGSLRLSCAASGFILDYYAIGWFRQAPGKEREGVLCIDASDDITYYADSVKGRFTISRDNAKNTVYLQMNSLKPEDTGVYYCATPIGLSSSCLLEYDYDYWGQGTLVTVSS
modifications: labelled with Sulfo-Cyanine7 NHS ester for the biodistribution study (sites not given)
notes: also called C-met nanobodies; Nb-PAS
